{
  "source": "paper PMC2943150",
  "about": "(Journal of medicinal chemistry, 2009)",
  "molecular_target": "HIV-1 protease (Human immunodeficiency virus type 1 group M subtype B, UniProt P04585)",
  "assay": "HIV-1 protease enzyme inhibition, assay protocol of Toth and Marshall",
  "format": "biochemical",
  "data": [
    {"smiles": "COc1ccc2c(c1)OCCCC/C=C\\CN(C[C@@H](O)[C@H](Cc1ccccc1)NC(=O)O[C@H]1CO[C@H]3OCC[C@H]31)S2(=O)=O", "note": "[Inhibitor 14e]", "values": [
      {"measurement": "Ki", "result": "0.017 ± 0.001", "unit": "nM"}
    ]},
    {"smiles": "COc1ccc2c(c1)OCCCCCCCN(C[C@@H](O)[C@H](Cc1ccccc1)NC(=O)O[C@H]1CO[C@H]3OCC[C@H]31)S2(=O)=O", "note": "[Inhibitor 15d]", "values": [
      {"measurement": "Ki", "result": "0.08 ± 0.02", "unit": "nM"}
    ]}
  ]
}
